Experimental data: patent US10770169B2, “Method of providing a treatment to a subject based on a dynamic pathway map” (THE REGENTS OF THE UNIVERSITY OF CALIFORNIA, priority 2010, dated 2020)
Read-outs that look alike come from different tables or passages of the source.

Test system: panel of 55 breast cancer cell lines
Experiment: Cell growth inhibition assay (Cell Titer Glo, 72 h, 9 doses; GI50, TGI, LC50)
Assay type: cell-based, human
Conditions: Homo sapiens, read-out: GI50 (converted)

## COc1cccc2c1C(=O)c1c(O)c3c(c(O)c1C2=O)C[C@@](O)(C(=O)CO)C[C@@H]3O[C@H]1C[C@H](N)[C@H](O)[C@H](C)O1 [Doxorubicin]
600MPE cell line, censored GI50 values
  GI50: 269 nM
AU565, AU565 cell line, censored GI50 values
  GI50: 93.3 nM
AU565, cell line AU565
  GI50: 93.3 nM
BT-474, BT474 cell line, censored GI50 values
  GI50: 309 nM
BT-474, cell line BT474
  GI50: 309 nM
BT-483, BT483 cell line, censored GI50 values
  GI50: 151 nM
BT-483, cell line BT483
  GI50: 151 nM
CAMA-1, CAMA1 cell line, censored GI50 values
  GI50: 263 nM
CAMA-1, cell line CAMA1
  GI50: 263 nM
HCC38, HCC38 cell line, censored GI50 values
  GI50: 72.4 nM
HCC38, cell line HCC38
  GI50: 72.4 nM
HCC70, HCC70 cell line, censored GI50 values
  GI50: 2290 nM
HCC70, cell line HCC70
  GI50: 2290 nM
HCC202, HCC202 cell line, censored GI50 values
  GI50: 525 nM
HCC202, cell line HCC202
  GI50: 525 nM
HCC1143, HCC1143 cell line, censored GI50 values
  GI50: 525 nM
HCC1143, cell line HCC1143
  GI50: 525 nM
HCC1187, HCC1187 cell line, censored GI50 values
  GI50: 132 nM
HCC1187, cell line HCC1187
  GI50: 132 nM
HCC1395, HCC1395 cell line, censored GI50 values
  GI50: 251 nM
HCC1395, cell line HCC1395
  GI50: 251 nM
HCC1419, HCC1419 cell line, censored GI50 values
  GI50: 513 nM
HCC1419, cell line HCC1419
  GI50: 513 nM
HCC1428, HCC1428 cell line, censored GI50 values
  GI50: 1200 nM
HCC1428, cell line HCC1428
  GI50: 1200 nM
HCC1500, HCC1500 cell line, censored GI50 values
  GI50: 200 nM
HCC1500, cell line HCC1500
  GI50: 200 nM
HCC1806, HCC1806 cell line, censored GI50 values
  GI50: 162 nM
HCC1806, cell line HCC1806
  GI50: 162 nM
HCC1954, HCC1954 cell line, censored GI50 values
  GI50: 186 nM
HCC1954, cell line HCC1954
  GI50: 186 nM
HCC2185 cell line, censored GI50 values
  GI50: 69.2 nM
HCC3153 cell line, censored GI50 values
  GI50: 355 nM
LY2 cell line, censored GI50 values
  GI50: 195 nM
MCF7, MCF7 cell line, censored GI50 values
  GI50: 501 nM
MCF7, cell line MCF7
  GI50: 501 nM
MDA-MB-134-VI, MDAMB134VI cell line, censored GI50 values
  GI50: 1200 nM
MDA-MB-157, MDAMB157 cell line, censored GI50 values
  GI50: 398 nM
MDA-MB-157, cell line MDAMB157
  GI50: 398 nM
MDA-MB-175-VII, MDAMB175VII cell line, censored GI50 values
  GI50: 708 nM
MDA-MB-231, MDAMB231 cell line, censored GI50 values
  GI50: 214 nM
MDA-MB-231, cell line MDAMB231
  GI50: 214 nM
MDA-MB-361, MDAMB361 cell line, censored GI50 values
  GI50: 234 nM
MDA-MB-361, cell line MDAMB361
  GI50: 234 nM
MDA-MB-415, MDAMB415 cell line, censored GI50 values
  GI50: 372 nM
MDA-MB-415, cell line MDAMB415
  GI50: 372 nM
MDA-MB-436, MDAMB436 cell line, censored GI50 values
  GI50: 589 nM
MDA-MB-436, cell line MDAMB436
  GI50: 589 nM
MDA-MB-453, MDAMB453 cell line, censored GI50 values
  GI50: 214 nM
MDA-MB-453, cell line MDAMB453
  GI50: 214 nM
MDA-MB-468, MDAMB468 cell line, censored GI50 values
  GI50: 741 nM
MDA-MB-468, cell line MDAMB468
  GI50: 741 nM
SK-BR-3, SKBR3 cell line, censored GI50 values
  GI50: 126 nM
SK-BR-3, cell line SKBR3
  GI50: 126 nM
SUM52PE, SUM52PE cell line, censored GI50 values
  GI50: 97.7 nM
SUM52PE, cell line SUM52PE
  GI50: 97.7 nM
SUM185PE, SUM185PE cell line, censored GI50 values
  GI50: 309 nM
SUM185PE, cell line SUM185PE
  GI50: 309 nM
SUM1315MO2, SUM1315MO2 cell line, censored GI50 values
  GI50: 214 nM
SUM-159-PT, SUM159PT cell line, censored GI50 values
  GI50: 347 nM
SUM-159-PT, cell line SUM159PT
  GI50: 347 nM
UACC-812, UACC812 cell line, censored GI50 values
  GI50: 74.1 nM
UACC-812, cell line UACC812
  GI50: 74.1 nM
UACC-893, UACC893 cell line, censored GI50 values
  GI50: 832 nM
UACC-893, cell line UACC893
  GI50: 832 nM
ZR-75-1, ZR751 cell line, censored GI50 values
  GI50: 138 nM
ZR-75-1, cell line ZR751
  GI50: 138 nM
ZR-75-30, ZR7530 cell line, censored GI50 values
  GI50: 110 nM
ZR-75-30, cell line ZR7530
  GI50: 110 nM
ZR-75B, ZR75B cell line, censored GI50 values
  GI50: 251 nM
ZR-75B, cell line ZR75B
  GI50: 251 nM
Cell line 600MPE
  GI50: 269 nM
Cell line HCC2185
  GI50: 69.2 nM
Cell line HCC3153
  GI50: 355 nM
Cell line LY2
  GI50: 195 nM
Cell line MDAMB134V
  GI50: 1200 nM
Cell line MDAMB175V
  GI50: 708 nM
Cell line SUM1315MO
  GI50: 214 nM
